Legend:
HBL-1 = assay: Combination study, ATPLite 72 h, dose matrix (Synergy Score, CI50); settings: combination with Compound 1, 72 h
RL = assay: as above; settings: combination with Compound 1, 72 h
SU-DHL-10-epst = assay: as above; settings: combination with Compound 1, 72 h
WSU-NHL = assay: as above; settings: combination with Compound 1, 72 h
SU-DHL-4-epst = assay: as above; settings: combination with Compound 1, 72 h
GRANTA-519 = assay: as above; settings: combination with Compound 1
Procedure: (§1) Cells are thawed from a liquid nitrogen preserved state. Once cells have been expanded and divide at their expected doubling times, screening begins. Cells are seeded in growth media in either black 1536-well or 384-well tissue culture treated plates. Cells are then equilibrated in assay plates via centrifugation and placed in incubators attached to the Dosing Modules at 37° C. for 24 hours before treatment. […] These Tzero (To) plates are read using ultra-sensitive luminescence on Envision plate readers (Perkin Elmer). Treated assay plates are incubated with compound for 72 hours. After 72 hours, plates are developed for endpoint analysis using ATPLite. All data points are collected via automated processes, quality controlled and analyzed using Zalicus software.
(§2) where T is treated cell count and V is untreated (vehicle) cell count (at 72 hours). I ranges from 0% (when T=V) to 100% (when T=0). […] The measure of effect in the experiment can be the inhibition of cellular response relative to the untreated level (vehicle alone). […] The inhibition ranges from 0% at the untreated level to 100% when T=0. Inhibition levels are negative for agents that actually increase levels. Other effect measures, such as an activity ratio r=T/V may be more appropriate for some assays. When activity ratios (e.g, fold increase over stimulated control) are being used, the effect can be measured using an induction 1=ln(T/V). With this definition, all effect expressions are the same as for inhibition.
(§3) Growth Inhibition (GI) is used as a measure of cell viability. […] A GI reading of 100% represents complete growth inhibition—T72 compound-treated and T0 vehicle signals are matched. […] A GI reading of 200% represents complete death of all cells in the culture well. Compounds reaching an activity plateau of GI 200% are considered cytotoxic. GI is calculated by applying the following test and equation:
(§4) Combination analysis data were collected in a 6×6 dose matrix. Synergy is calculated by comparing a combination's response to those of its single compound, against the drug-with-itself dose-additive reference model. Deviations from dose additivity may be assessed visually on an isobologram or numerically with a Combination Index (CI). […] Additive effect is CI=1.0. […] Antagonistic effect is CI>1.0.
(§5) To measure combination effects in excess of Loewe additivity, a scalar measure to characterize the strength of synergistic interaction termed the Synergy Score is devised. The Synergy Score is calculated as:
(§6) The fractional inhibition for each component agent and combination point in the matrix is calculated relative to the median of all vehicle-treated control wells. The Synergy Score equation integrates the experimentally-observed activity volume at each point in the matrix in excess of a model surface numerically derived from the activity of the component agents using the Loewe model for additivity. Additional terms in the Synergy Score equation (above) are used to normalize for various dilution factors used for individual agents and to allow for comparison of synergy scores across an entire experiment. The inclusion of positive inhibition gating or an Idata multiplier removes noise near the zero effect level, and biases results for synergistic interactions at that occur at high activity levels.
(§7) Loewe Volume (Loewe Vol) is used to assess the overall magnitude of the combination interaction in excess of the Loewe additivity model. Loewe Volume is particularly useful when distinguishing synergistic increases in a phenotypic activity (positive Loewe Volume) versus synergistic antagonisms (negative Loewe Volume). […] This model defines additivity as a non-synergistic combination interaction where the combination dose matrix surface should be indistinguishable from either drug crossed with itself.

U-2932 = assay: as above; settings: combination with Compound 1, 72 h
TMD8 = assay: as above; settings: combination with Compound 1
KARPAS-422 = assay: as above; settings: combination with Compound 1, 72 h
HH = assay: as above; type: cell-based; settings: combination with Compound 1
Procedure: The method is described as follows.
Additive effect is CI=1.0. […] Antagonistic effect is CI>1.0.
The Synergy Score is calculated as: […]

OCI-Ly7 = assay: as above; settings: combination with Compound 1, 72 h
Farage = assay: as above; settings: combination with Compound 1; Farage; 72 h
DOHH-2 = assay: as above; settings: combination with Compound 1, 72 h
KARPAS-299 = assay: as above; settings: combination with Compound 1
Mino = assay: as above; settings: combination with Compound 1
Procedure: as §1, §2, §3, §4, §5, §6, §7

RPMI-8226 = assay: as above; settings: combination with Compound 1
NCI-H929 = assay: as above; settings: combination with Compound 1
[1] = as above; settings: combination with Compound 1; OPM-2
OMP-2 = assay: as above; settings: combination with Compound 1; OPM-2
OCI-Ly3 = assay: as above; settings: combination with Compound 1; OCI-Ly3; 72 h
Jeko-1 = assay: as above; settings: combination with Compound 1
Procedure: as §1, §2, §3, §4, §5, §6, §7

CC(=O)Nc1cccc(-n2c(=O)n(C3CC3)c(=O)c3c(Nc4ccc(I)cc4F)n(C)c(=O)c(C)c32)c1 [trametinib, N-(3-{3-cyclopropyl-5-[(2-fluoro-4-iodophenyl)amino]-6,8-dimethyl-2,4,7-trioxo-3,4,6,7-tetrahydropyrido[4,3-d]pyrimidin-1(2H)-yl}phenyl)acetamide]
CI50 growth inhibition (HBL-1): U (U=0.7 to <1)
Synergy Score growth inhibition (HBL-1): A2 (A2=1 to <3)
Synergy Score inhibition (HBL-1): A1 (A1=0.0001 to <1)
Synergy Score growth inhibition (RL): A1 (A1=0.0001 to <1)
Synergy Score inhibition (RL): A1 (A1=0.0001 to <1)
CI50 growth inhibition (SU-DHL-10-epst): S (S=0.01 to <0.5)
CI50 inhibition (SU-DHL-10-epst): S (S=0.01 to <0.5)
Synergy Score growth inhibition (SU-DHL-10-epst): A3 (A3=>3)
Synergy Score inhibition (SU-DHL-10-epst): A3 (A3=>3)
CI50 growth inhibition (WSU-NHL): T (T=0.5 to <0.7)
CI50 inhibition (WSU-NHL): S (S=0.01 to <0.5)
Synergy Score growth inhibition (WSU-NHL): A3 (A3=>3)
Synergy Score inhibition (WSU-NHL): A3 (A3=>3)
CI50 growth inhibition (SU-DHL-4-epst): S (S=0.01 to <0.5)
CI50 inhibition (SU-DHL-4-epst): S (S=0.01 to <0.5)
Synergy Score growth inhibition (SU-DHL-4-epst): A3 (A3=>3)
Synergy Score inhibition (SU-DHL-4-epst): A2 (A2=1 to <3)
CI50 growth inhibition (GRANTA-519): S (S=0.01 to <0.5)
Synergy Score growth inhibition (GRANTA-519): A2 (A2=1 to <3)
Synergy Score inhibition (GRANTA-519): A1 (A1=0.0001 to <1)
CI50 growth inhibition (U-2932): U (U=0.7 to <1)
Synergy Score growth inhibition (U-2932): A1 (A1=0.0001 to <1)
Synergy Score inhibition (U-2932): A1 (A1=0.0001 to <1)
CI50 growth inhibition (TMD8; TMD8, 72 h): S (S=0.01 to <0.5)
CI50 inhibition (TMD8; TMD8, 72 h): S (S=0.01 to <0.5)
Synergy Score growth inhibition (TMD8; TMD8, 72 h): A3 (A3=>3)
Synergy Score inhibition (TMD8; TMD8, 72 h): A3 (A3=>3)
effect of the combination (isobologram) (TMD8; TMD8 DLBCL cell line, FIG. 1-3): synergistic effect
CI50 growth inhibition (KARPAS-422): S (S=0.01 to <0.5)
CI50 inhibition (KARPAS-422): S (S=0.01 to <0.5)
Synergy Score growth inhibition (KARPAS-422): A2 (A2=1 to <3)
Synergy Score inhibition (KARPAS-422): A2 (A2=1 to <3)
CI50 growth inhibition (HH): S (S=0.01 to <0.5)
CI50 inhibition (HH): S (S=0.01 to <0.5)
Synergy Score growth inhibition (HH): A3 (A3=>3)
Synergy Score inhibition (HH): A2 (A2=1 to <3)
Synergy Score growth inhibition (OCI-Ly7): A1 (A1=0.0001 to <1)
Synergy Score inhibition (OCI-Ly7): A1 (A1=0.0001 to <1)
CI50 growth inhibition (Farage): W (W=≥1)
CI50 inhibition (Farage): U (U=0.7 to <1)
Synergy Score growth inhibition (Farage): A2 (A2=1 to <3)
Synergy Score inhibition (Farage): A2 (A2=1 to <3)
CI50 growth inhibition (DOHH-2): U (U=0.7 to <1)
CI50 inhibition (DOHH-2): W (W=≥1)
Synergy Score growth inhibition (DOHH-2): A3 (A3=>3)
Synergy Score inhibition (DOHH-2): A2 (A2=1 to <3)
Synergy Score growth inhibition (KARPAS-299): A1 (A1=0.0001 to <1)
Synergy Score inhibition (KARPAS-299): A1 (A1=0.0001 to <1)
CI50 growth inhibition (Mino): S (S=0.01 to <0.5)
CI50 inhibition (Mino): S (S=0.01 to <0.5)
Synergy Score growth inhibition (Mino): A3 (A3=>3)
Synergy Score inhibition (Mino): A3 (A3=>3)
CI50 growth inhibition (RPMI-8226): U (U=0.7 to <1)
Synergy Score growth inhibition (RPMI-8226): A2 (A2=1 to <3)
Synergy Score inhibition (RPMI-8226): A1 (A1=0.0001 to <1)
CI50 growth inhibition (NCI-H929): T (T=0.5 to <0.7)
CI50 inhibition (NCI-H929): S (S=0.01 to <0.5)
Synergy Score growth inhibition (NCI-H929): A3 (A3=>3)
Synergy Score inhibition (NCI-H929): A2 (A2=1 to <3)
CI50 growth inhibition [1]: T (T=0.5 to <0.7)
CI50 inhibition (OMP-2): W (W=≥1)
Synergy Score growth inhibition (OMP-2): A2 (A2=1 to <3)
Synergy Score inhibition (OMP-2): A2 (A2=1 to <3)
CI50 growth inhibition (OCI-Ly3): W (W=≥1)
Synergy Score growth inhibition (OCI-Ly3): A2 (A2=1 to <3)
Synergy Score inhibition (OCI-Ly3): A1 (A1=0.0001 to <1)
CI50 growth inhibition (Jeko-1): U (U=0.7 to <1)
CI50 inhibition (Jeko-1): W (W=≥1)
Synergy Score growth inhibition (Jeko-1): A1 (A1=0.0001 to <1)
Synergy Score inhibition (Jeko-1): A1 (A1=0.0001 to <1)

From US20240325398A1, “COMBINATION THERAPIES” (Infinity Pharmaceuticals, Inc., priority 2014, published 2024)
